Converted amounts (≈) assume the structure as drawn. “And” between values parts separate entries of the source, which are not always exact repeats. Identical values can stand only once.
Columns and labels:
[1] = test system: Peptostreptococcus asaccharolytics (29743); test: MIC, NCCLS broth microdilution; format: cell-based; conditions: anaerobe
Bacillus cereus (11778) [2] = test: MBC according to NCCLS guideline; format: cell-based
Esherichia coli (25922) = test: MIC, NCCLS broth microdilution; format: cell-based, Escherichia coli; conditions: Escherichia coli (25922)
[3] = test system: Pseudomona aeruginosa (27853); test: MIC, NCCLS broth microdilution; format: cell-based; conditions: Pseudomona aeruginosa (27853)
ATTACT = test: DNase I footprint titration, ATTACT site; format: binding; conditions: equilibrium association constant Ka; pH 7.0, 22° C.
all species tested = test: Microbicidal activity (MIC versus MBC), all species tested; format: cell-based; conditions: in words; from difference between MICs and MBCs
From the text: The minimal bactericidal concentration (MBC) has been determined for some of these designed compounds according to NCCLS guideline (Lorian, V. 1996 Antibiotics in laboratory medicine (The Williams & Wilkins Co., Baltimore, Md.)). The difference between the MICs and the MBCs has been established as an index of the bactericidal activity of an antibiotic.

[4] = test system: different species of bacteria and fungi; conditions: exception: Gram-negative bacteria such as Escherichia and Pseudomonas
Candida albicans (90028) [5] = test: MIC, antifungal assay; format: cell-based
[6] = test system: Propionibacterium acnes (33179); test: MIC, NCCLS broth microdilution; format: cell-based; conditions: anaerobe
[7] = test system: Enterococcus faecalis (29212); test: MBC according to NCCLS guideline; format: cell-based
AGTACT = test: DNase I footprint titration, AGTACT site; format: binding; conditions: equilibrium association constant Ka; pH 7.0, 22° C.
[8] = test system: Staphylococcus epidermidis (12228)
[9] = test system: Haemophilus influenzae (49247); test: MIC, NCCLS broth microdilution; format: cell-based; conditions: Haemophilus influenzae (49247)
[10] = test system: Peptostreptococcus asaccharolytics (29743)
[11] = test system: Aspergillus niger (10535); test: MIC, antifungal assay; format: cell-based
[12] = test system: Trichophyto tonsurans (28942); test: MIC, antifungal assay; format: cell-based
[13] = test system: Staphylococcus epidermidis (12228); test: MIC, NCCLS broth microdilution; format: cell-based; conditions: Staphylococcus epidermidis (12228)
[14] = test system: Enterococcus faecium (51559) (vacomycin resistant); test: MIC, NCCLS broth microdilution; format: cell-based; conditions: Enterococcus faecium (51559), vancomycin resistant
[15] = test system: Streptococcus pneumoniae (49619); test: MBC according to NCCLS guideline; format: cell-based
[16] = test system: Corynebacterium Group A (49676)
[17] = test system: Streptococcus pyogenes (49339)
Candida albicans (90028) [18] = test: MBC according to NCCLS guideline; format: cell-based
[19] = test system: Enterococcus faecium (51559) (vacomycin resistant); conditions: vancomycin resistant
[20] = test system: Staphylococcus aureus (29213); test: MBC according to NCCLS guideline; format: cell-based
Bacillus cereus (11778) [21] = test: MIC, NCCLS broth microdilution; format: cell-based; conditions: Bacillus cereus (11778)
[22] = test system: Staphylococcus aureus (29213); test: MIC, NCCLS broth microdilution; format: cell-based; conditions: Staphylococcus aureus (29213)
[23] = test system: Clostridium perfringens (13124)
Fusarium solani (36031) = test: MIC, antifungal assay; format: cell-based
[24] = test system: Streptococcus pyogenes (49339); test: MIC, NCCLS broth microdilution; format: cell-based; conditions: Streptococcus pyogenes (49339); Table Ia: Streptococcus Group A(49339)
[25] = test system: Enterococcus faecalis (29212); test: MIC, NCCLS broth microdilution; format: cell-based; conditions: Enterococcus faecalis (29212)
[26] = test system: Clostridium perfringens (13124); test: microbe, parasite or virus in culture; format: cell-based; conditions: Clostridium perfringens (13124), anaerobe
[27] = test system: Propionibacterium acnes (33179)
Bacillus subtilis (6633) [28] = test: MIC, NCCLS broth microdilution; format: cell-based; conditions: Bacillus subtilis (6633)
[29] = test system: Staphylococcus aureus (33591) (methicillin resistant)
[30] = test system: Listeria monocytogenes (19115); test: MIC, NCCLS broth microdilution; format: cell-based
[31] = test system: Staphylococcus aureus (33591) (methicillin resistant); test: MIC, NCCLS broth microdilution; format: cell-based; conditions: Staphylococcus aureus (33591), methicillin resistant (MRSA)
[32] = test system: Saccharomyces cerevisiae (44773); test: MIC, antifungal assay; format: cell-based
AATACT = test: DNase I footprint titration, AATACT site; format: binding; conditions: equilibrium association constant Ka; pH 7.0, 22° C.
[33] = test system: Corynebacterium Group A (49676); test: MIC, NCCLS broth microdilution; format: cell-based; conditions: Corynebacterium Group A (49676)
Bacillus subtilis (6633) [34] = test system: Bacillus subtilis (6633)
[35] = test system: Streptococcus pneumoniae (51422) (multiple drug resistant); test: MIC, NCCLS broth microdilution; format: cell-based
[36] = test system: Streptococcus pneumoniae (49619); test: MIC, NCCLS broth microdilution; format: cell-based; conditions: Streptococcus pneumoniae (49619)
[37] = test system: Saccharomyces cerevisiae (44773); test: MBC according to NCCLS guideline; format: cell-based
[38] = test system: Paecilomyces variotii (22319); test: MIC, antifungal assay; format: cell-based
[39] = test system: Candida albicans (38247) (Polyene resistant); test: MIC, antifungal assay; format: cell-based
ACTACT = test: DNase I footprint titration, ACTACT site; format: binding; conditions: equilibrium association constant Ka; pH 7.0, 22° C.
Bacillus anthracis = format: cell-based

Structure (SMILES): CN(C)CCCNC(=O)c1cc(NC(=O)c2cc(NC(=O)c3cc(NC(=O)c4nsc(NCCCCN)c4Cl)cn3C)cn2C)cn1C [V-a]
- MIC [1]: 0.125 µg/mL (≈ 0.179 µM)
- MBC (Bacillus cereus (11778) [2]): 0.5 µg/mL (≈ 0.714 µM)
- MIC (Esherichia coli (25922)): >128 µg/mL
- MIC [3]: >128 µg/mL
- Binding Constant, sequence ATTACT (ATTACT): 1e+08 M⁻¹
- Microbicidal activity (all species tested): microbicidal agents for all species tested
- MBC (Micrococcus luteus (381)): 0.5 µg/mL (≈ 0.714 µM)
- MIC for most species tested [4]: less than 8 μg/mL
- MIC (Candida albicans (90028) [5]): 4 µg/mL (≈ 5.71 µM)
- MIC [6]: 2 µg/mL and 4 µg/mL
- MBC [7]: >4 µg/mL
- Binding Constant, sequence AGTACT (AGTACT): 3e+09 M⁻¹
- MBC [8]: 1 µg/mL (≈ 1.43 µM)
- MIC [9]: 32 µg/mL (≈ 45.7 µM)
- MBC [10]: 0.25 µg/mL (≈ 0.357 µM)
- MIC [11]: 2 µg/mL (≈ 2.86 µM)
- MIC [12]: 16 µg/mL (≈ 22.8 µM)
- MIC [13]: 1 µg/mL (≈ 1.43 µM)
- MIC [14]: 1 µg/mL (≈ 1.43 µM)
- MBC [15]: 0.5 µg/mL (≈ 0.714 µM)
- MBC [16]: 0.25 µg/mL (≈ 0.357 µM)
- MBC [17]: 0.125 µg/mL (≈ 0.179 µM)
- MBC (Candida albicans (90028) [18]): 4 µg/mL (≈ 5.71 µM)
- MBC [19]: 2 to 4 µg/mL
- MBC [20]: 2 µg/mL (≈ 2.86 µM)
- MIC (Bacillus cereus (11778) [21]): 0.25 µg/mL (≈ 0.357 µM)
- MIC [22]: 2 µg/mL (≈ 2.86 µM)
- MBC [23]: 2 µg/mL (≈ 2.86 µM)
- MIC (Fusarium solani (36031)): 4 µg/mL (≈ 5.71 µM)
- MIC [24]: 0.125 µg/mL (≈ 0.179 µM)
- MIC [25]: 1 µg/mL (≈ 1.43 µM)
- MIC [26]: 1 µg/mL (≈ 1.43 µM)
- MBC [27]: 8 µg/mL (≈ 11.4 µM)
- MIC (Bacillus subtilis (6633) [28]): 0.25 µg/mL and 0.25 to 0.5 µg/mL
- MBC [29]: 4 µg/mL (≈ 5.71 µM)
- MIC [30]: 4 µg/mL (≈ 5.71 µM)
- MIC [31]: 2 µg/mL (≈ 2.86 µM)
- MIC [32]: 8 µg/mL (≈ 11.4 µM)
- Binding Constant, sequence AATACT (AATACT): 1e+08 M⁻¹
- MIC [33]: 0.25 µg/mL and 0.25 to 0.5 µg/mL
- MBC (Bacillus subtilis (6633) [34]): 0.5 µg/mL (≈ 0.714 µM)
- MIC [35]: 8 µg/mL (≈ 11.4 µM)
- MIC [36]: 0.5 µg/mL (≈ 0.714 µM)
- MBC [37]: 8 µg/mL (≈ 11.4 µM)
- MIC [38]: 0.5 µg/mL (≈ 0.714 µM)
- MIC [39]: 4 µg/mL (≈ 5.71 µM)
- Binding Constant, sequence ACTACT (ACTACT): 1e+08 M⁻¹
- MIC (Bacillus anthracis): 4 µg/mL (≈ 5.71 µM)
